# Test results from patent publication US20130029928A1 (priority 2010, published 2013).
# Where “and” joins values, the source holds several entries; their conditions need not be identical. Equal entries are not always repeated. Entries after “also recorded” stand apart in the source; their conditions may differ. Where two headings read alike, the source gives them in different places.
# Experiments:
# Metabolism = settings: patients / human
# Excerpt: It is presumed that CXR1002 will eventually reach a steady state level after a number of doses, in an analogous way to its accumulative exposure in monkeys.
# Unlike most other anti-tumour agents, PFOA is efficiently absorbed following oral exposure.
# Stability / shelf life = format: physicochemical
# [1] = tested on: PANC-1 (pancreas) xenograft tumours; experiment: PANC-1 xenograft in female nude mice; format: in vivo, nude mouse
# Protocol: (§1) A further xenograft model was performed using the human pancreatic cell line PANC-1. This tumour is slow growing in vivo. […] For various reasons, animals were lost during the study and the final group sizes were small. […] This experiment is currently being repeated to try to obtain larger group sizes at experimental completion.
# (§2) In-life and terminal blood samples taken from the mice were analysed for CXR1002 levels using a validated analytical method. In-life samples averaged 146 μM and terminal blood samples (24 hours post final dose) averaged 474 μM (FIG. 7). Plasma values were higher than the whole blood values. This may be attributed to the duration of dosing. […] Furthermore, the erythrocyte/plasma partitioning coefficient (which measures the amount of drug bound to red cells compared to plasma binding) may contribute to the observed differences.
# [2] = PANC-1 xenograft in female nude mice; format: in vivo, nude mouse; settings: female, nude, mouse, plasma, 25 mg/kg; PANC-1 model; 24 hrs post last dose; Day 88
# Protocol: as §1, §2
# [3] = tested on: panel of tumour cell lines; experiment: ATP cytotoxicity assay on the panel of tumour cell lines (CXR1002 alone; test items alone vs combined with CXR1002); settings: Homo sapiens, read-out: cytotoxicity IC50 to tumour cells (lowest of range)
# Protocol: (§3) The SRB assay was performed according to the method specified by the NIC/NIH. […] Assay replicates were independent in time and up to 4 replicates were performed per cell line.
# Cells were plated at the optimal plating density for that cell line in 96-well plates and allowed to attach overnight. The next day, the medium was removed and replaced with fresh medium containing the dose ranges of test items. The cells were exposed to 5-FU, cisplatin, docetaxel, doxorubicin, geldanamycin, gemcitabine, rapamycin or roscovitine in Roswell Park Memorial Institute (RPMI) medium containing 10% Foetal Calf Serum (FCS) and 2 mM Glutamine at 37° C. and 5% CO2 for 48 hours. […] There were 3 replicates for each test item concentration.
# (§4) Following exposure to Test Items, the CellTitre-Glo Luminescent Cell Viability Assay to measure ATP content was performed according to the manufacturer's detailed instructions (Promega Corporation, Technical Bulletin No. 288, and Cell notes, Issue 10, 2004).
# [4] = tested on: Panc-1 (pancreatic tumour) cells; experiment: Western blot of ER stress-regulated proteins in Panc-1 cells; format: cell-based, human; settings: 500 μM, 4 h to 4 days
# Protocol: Western blots were performed on the protein extracts (equivalent protein concentrations were loaded onto the gels). The antibodies used were for known ER stress regulated protein Bip/GRP78, CHOP/DDIT3, IRE1alpha, TRB3 (Tribbles3), cleaved PARP (marker of apoptosis), and tubulin (loading control) (see FIG. 71).
# Capan2 = experiment: ATP depletion cytotoxicity assay 48 hr; format: cell-based, human
# Protocol: (§5) Assay replicates were independent in time and up to 4 replicates were performed per cell line.
# (§6) Cells were plated at the optimal plating density for that cell line in 96-well plates and allowed to attach overnight. The next day, the medium was removed and replaced with fresh medium containing the dose ranges of test items. […] There were 3 replicates for each test item concentration.
# as §4
# (§7) Cells were plated at the optimal plating density for that cell line in 96-well plates and allowed to attach overnight. The next day, cells were pre-treated with the inhibitors UO126 or LY294002 (see Tables 18 & 20) for 2 hrs, the medium was removed and replaced with fresh medium containing the appropriate dose of the test item. […] Cells were exposed to these compounds in Roswell Park Memorial Institute (RPMI) medium containing 10% Foetal Calf Serum (FCS) and 2 mM Glutamine at 37° C. and 5% CO2 for 48 hours. There were 3 replicates for each test item concentration.
# (§8) Following exposure to Test Items, the CellTitre-Glo Luminescent Cell Viability Assay to measure ATP content will be performed according to the manufacturer's detailed instructions (Promega Corporation, Technical Bulletin No. 288, and Cell notes, Issue 10, 2004).
# SW1353 = experiment: ATP depletion cytotoxicity assay 48 hr; format: cell-based, human
# Protocol: as §4
# (§9) Cells were plated at the optimal plating density for that cell line in 96-well plates and allowed to attach overnight. […] Cells were exposed to these compounds in Roswell Park Memorial Institute (RPMI) medium containing 10% Foetal Calf Serum (FCS) and 2 mM Glutamine at 37° C. and 5% CO2 for 48 hours. There were 3 replicates for each test item concentration.
# as §8
# MES-SA = experiment: ATP depletion cytotoxicity assay 48 hr; format: cell-based; settings: Homo sapiens, Study CXR0798, read-out: IC50 1
# Protocol: as §3
# MCF-7 = experiment: SRB cytotoxicity assay 48 hr; format: cell-based, human; settings: read-out: IC50 Values After 48 Hrs Exposure
# Protocol: as §3
# [5] = tested on: patients with advanced cancer; experiment: Phase I study CXR1002-001: safety and toxicity; format: in vivo, human; settings: at the doses examined to date
# Excerpt: These patients then underwent repeat dosing schedule with the same dose of CXR1002. […] Dose limiting toxicity (DLT) will be based on the toxicity assessments over the first 3-week period of the repeat dosing schedule. PK samples (single blood sample) were taken on the following basis: • Every 6 weeks during the repeat dosing phase • If dosing is interrupted or stopped, samples will be taken at intervals according to patient convenience • PK sampling for safety evaluation may take place at any time, as clinically indicated
# In all dose cohorts subsequent to the initial dose cohort, all patients will be treated with weekly administration of study drug from the start of dosing. Dose escalation was performed after all patients at the preceding dose level had completed a 3-week repeat dosing period.
# Water solubility = format: physicochemical
# [6] = tested on: HepG2 (liver) xenograft tumours; experiment: HepG2 xenograft model of liver carcinoma; format: in vivo, nude mouse
# Excerpt: There was no obvious difference between the two different dosing regimens.
# OUMS-27 = experiment: ATP depletion cytotoxicity assay 48 hr; format: cell-based, human
# Protocol: as §4, §9, §8
# OVCAR-3 = experiment: ATP depletion cytotoxicity assay 48 hr; format: cell-based; settings: Homo sapiens
# Protocol: as §5, §6, §4
# Cells were plated at the optimal plating density for that cell line in 96-well plates and allowed to attach overnight. The next day, cells were pre-treated with the inhibitors UO126 or LY294002 (see Tables 18 & 20) for 2 hrs, the medium was removed and replaced with fresh medium containing the appropriate dose of the test item. […] Cells were exposed to these compounds in Roswell Park Memorial Institute (RPMI) medium containing 10% Foetal Calf Serum (FCS) and 2 mM Glutamine at 37° C. and 5% CO2 for 48 hours. There were 3 replicates for each test item concentration. […]
# TOV-21G = experiment: ATP depletion cytotoxicity assay 48 hr; format: cell-based, human
# Protocol: as §5, §6, §4, §7, §8
# CaCo-2 [7] = experiment: SRB cytotoxicity assay 48 hr; format: cell-based, human; settings: read-out: IC50 Values After 48 Hrs Exposure
# Protocol: as §3
# A549 = experiment: SRB cytotoxicity assay 48 hr; format: cell-based, human; settings: read-out: IC50 Values After 48 Hrs Exposure
# Protocol: as §3
# [8] = tested on: panel of human tumour-derived cell lines; experiment: Hoechst 3342 staining (apoptotic cells) in the SRB cell line panel; format: cell-based
# PANC-1 cells = experiment: Transcription profiling of CXR1002-treated PANC-1 cells (ER stress genes, Ingenuity); format: cell-based, human; settings: PANC-1, 24 hrs at IC15
# Excerpt: Representation analysis of the in vitro 4996 signature list identified a number of pathways that were over-represented.
# CaCo-2 [9] = experiment: ATP depletion cytotoxicity assay 48 hr; format: cell-based, human
# Protocol: as §5, §6, §4, §7, §8
# [10] = ATP depletion, 48 hrs, read-out: IC50 1-4 (independent replicates)
smiles,measurement,setting,value
O=C(O)C(F)(F)C(F)(F)C(F)(F)C(F)(F)C(F)(F)C(F)(F)C(F)(F)F [CXR1002],metabolism,Metabolism,not metabolised
same,stability,Stability / shelf life,extremely stable
same,tumour growth,"[1]; 25 mg/kg, 3 times per week",substantially delayed tumour growth
same,Absolute Tumour Volume as a Percentage of Saline Control,"[1]; PANC-1, 25 mg/kg 3 times per week, Day 82",50.13%
same,Terminal CXR1002 plasma levels,"[1]; PANC-1 model, 24 hrs post last dose, Day 88",474 ± 153 µM
same,In-life blood CXR1002 level (average),"[1]; PANC-1 model, in-life samples",146 µM
same,concentration at 24 h,[2],474 µM
same,IC50,[3],≥ 273 µM
same,expression of ER stress-regulated proteins,[4],altered expression of ER stress-regulated proteins
same,IC50,"Capan2; Homo sapiens, Capan-2, 48 h, read-out: IC50 1-4 (independent replicates), ATP depletion, 48 hrs, Capan2",850 µM
same,IC50,"Capan2; Homo sapiens, Capan-2, 48 h, read-out: IC50 Mean, ATP depletion, 48 hrs, Capan2",817 µM
same,IC50,"Capan2; read-out: IC50 1-4 (independent replicates), ATP depletion, 48 hrs, Capan2",750 µM
same,IC50,"SW1353; Homo sapiens, SW1353, 48 h, read-out: IC50 1-4 (independent replicates)",> 1000 µM
same,IC50,"SW1353; Homo sapiens, SW1353, 48 h, read-out: IC50 Mean",> 1000 µM
same,IC50,"SW1353; read-out: IC50 1-4 (independent replicates), ATP depletion, 48 hrs, SW1353",> 1000 µM
same,IC50,MES-SA,> 1000 µM
same,IC50,MCF-7,276 ± 33.2 µM
same,clinical toxicity,[5],relatively non-toxic
same,solubility in water,Water solubility,freely soluble in water; also recorded: highly water soluble
same,growth inhibition response,[6]; 25 mg/kg 2× or 3× per week,modest response
same,Absolute Tumour Volume as a Percentage of Saline Control,"[6]; HepG2, 25 mg/kg, combined regimens, Day 53",77.05%
same,Terminal CXR1002 plasma levels,"[6]; HepG2 model, ×3 weekly regimen, Days 60-64",520 µM and 520 ± 46 µM
same,IC50,OUMS-27; [10],800 µM
same,IC50,"OUMS-27; Homo sapiens, 48 h, ATP depletion, 48 hrs, read-out: IC50 1-4 (independent replicates)",1000 µM
same,IC50,"OUMS-27; Homo sapiens, 48 h, ATP depletion, 48 hrs, read-out: IC50 Mean",900 µM
same,IC50,"OUMS-27; Homo sapiens, 48 h, Example 7, 48 hour, CXR1002 0-1 mM, U0126 fixed 10 μM where combined, read-out: IC50",821 µM
same,IC50,OVCAR-3; read-out: IC50 1-4 (independent replicates),650 µM
same,IC50,OVCAR-3; read-out: IC50 Mean,650 µM
same,IC50,TOV-21G; [10],600 µM and 700 µM
same,IC50,"TOV-21G; Homo sapiens, TOV21G, 48 h, ATP depletion, 48 hrs, read-out: IC50 1-4 (independent replicates)",610 µM
same,IC50,"TOV-21G; Homo sapiens, TOV21G, 48 h, ATP depletion, 48 hrs, read-out: IC50 Mean",637 µM
same,IC50,"TOV-21G; Homo sapiens, TOV21G, 48 h, Example 7, 48 hour, CXR1002 0-1 mM, U0126 fixed 10 μM where combined, read-out: IC50",615 µM
same,IC50,CaCo-2 [7],708 ± 159 µM
same,IC50,A549,230 ± 21.8 µM
same,induction of apoptosis,[8]; 10 μM,little effect
same,induction of apoptosis,[8]; 30 μM,variable responses
same,induction of apoptosis,[8]; 300 μM,marked induction of apoptosis
same,ATF3 induction,PANC-1 cells,3 fold
same,IC50,"CaCo-2 [9]; ATP depletion, 48 hrs, CaCo-2, read-out: IC50 1-4 (independent replicates)",690 µM and 670 µM
same,IC50,"CaCo-2 [9]; Homo sapiens, Caco-2, 48 h, ATP depletion, 48 hrs, CaCo-2, read-out: IC50 1-4 (independent replicates)",680 µM
same,IC50,"CaCo-2 [9]; Homo sapiens, Caco-2, 48 h, ATP depletion, 48 hrs, CaCo-2, read-out: IC50 Mean",680 µM
same,IC50,"CaCo-2 [9]; Homo sapiens, Caco-2, 48 h, Example 7, 48 hour, CaCO2, CXR1002 0-1 mM, U0126 fixed 10 μM where combined, read-out: IC50",704 µM
